Results published in patent publication US12264139B2, “Aryl sulfonamides as BLT1 antagonists” (Merck Sharp & Dohme LLC, priority 2015, dated 2025).

molecular target: T1, human BLT1 receptor (Homo sapiens, UniProt Q15722); assay: BLT-1 cAMP Assay; assay type: cell-based; details: HEK293 cells recombinantly expressing human BLT1; antagonist activity vs forskolin 4 μM and LTB4 2 nM; cAMP (CisBio kit)
T1 construct: expressed in transfected cells; host or cells: HEK293
Experimental: The ability of compounds to antagonize the human BLT1 receptor was determined using a kit to measure changes in intracellular cyclic AMP levels (cAMP dynamic assay kit, Cisbio Cat. No. 62AM4PEC). […] The cell suspension was centrifuged at 200×g for 10 min and then resuspended in fresh assay medium to a density of 2.5×10^5 cells/mL. […] All subsequent liquid additions were performed using a BIORAPTR (FRD; Beckman Coulter). Next, 5 μL of cell suspension was added and incubated for 20 min. at 37° C. and 5% CO2 in a humidified plastic tray.
The levels of cAMP were detected using the CisBio kit following the manufacturer's instructions: cAMP-d2 vial was reconstituted with distilled water and then diluted accordingly with conjugate & lysis buffer. 5 µL of cAMP-d2 working solution was added to all of the wells of the assay plate. cAMP-Cryptate vial was reconstituted with distilled water and then diluted accordingly with conjugate & lysis buffer. 5 µL of cAMP-Cryptate working solution were added to the assay plate. The assay plate was shaken for 3 minutes and incubated at room temperature for 45 minutes, then read on Perkin Elmer Envision. cAMP standard curve and fit data were plotted using a 4 parameter dose response curve fitting algorithm to fit curve. […] After normalization to treated and untreated controls, the percent effect of signal at each compound concentration was calculated. The plot of percent effect versus the log of compound concentration was fit with a 4-parameter concentration response equation to calculate EC50 values.

T1 sequence (Q15722 whole entry): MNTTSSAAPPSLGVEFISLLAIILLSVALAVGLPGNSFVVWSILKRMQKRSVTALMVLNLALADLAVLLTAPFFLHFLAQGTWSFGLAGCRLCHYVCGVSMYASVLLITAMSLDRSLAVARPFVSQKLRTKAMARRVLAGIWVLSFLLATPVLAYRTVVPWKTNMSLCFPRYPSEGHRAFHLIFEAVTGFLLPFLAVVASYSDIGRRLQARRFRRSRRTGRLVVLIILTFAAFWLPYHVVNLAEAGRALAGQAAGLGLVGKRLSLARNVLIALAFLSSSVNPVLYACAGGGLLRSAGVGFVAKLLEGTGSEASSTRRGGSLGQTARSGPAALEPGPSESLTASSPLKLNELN

SMILES	EC50
O=S(=O)(Nc1ccccc1-c1ccc2c(c1)OCC(Cc1ccccc1)C2O)C(F)(F)F (racemic) [Example 2, N-(2-((3,4-Rac-trans)-3-benzyl-4-hydroxychroman-7-yl)phenyl)-1,1,1-trifluoromethanesulfonamide]	31 nM
O=S(=O)(Nc1ccccc1-c1ccc2c(c1)OC[C@@H](Cc1ccc(-c3ccccc3)cc1)[C@H]2O)C(F)(F)F (racemic) [Example 3, N-(2-((3,4-Rac-cis)-3-([1,1′-biphenyl]-4-ylmethyl)-4-hydroxychroman-7-yl)phenyl)-1,1,1-trifluoromethanesulfonamide]	2290 nM
O=S(=O)(Nc1ccccc1-c1ccc2c(c1)OC[C@@H](Cc1ccc(-c3ccccc3)cc1)[C@@H]2O)C(F)(F)F (racemic) [Example 4, N-(2-((3,4-Rac-trans)-3-([1,1′-biphenyl]-4-ylmethyl)-4-hydroxychroman-7-yl)phenyl)-1,1,1-trifluoromethanesulfonamide]	6 nM
O=S(=O)(Nc1ccccc1-c1ccc2c(c1)OCC(Cc1ccc(-c3ccccc3)s1)C2O)C(F)(F)F (racemic) [Example 5, 1,1,1-Trifluoro-N-(2-((3,4-rac-trans)-4-hydroxy-3-((5-phenylthiophen-2-yl)methyl)chroman-7-yl)phenyl)methanesulfonamide]	9 nM
O=S(=O)(Nc1ccccc1-c1ccc2c(c1)OCC(Cc1cc[nH]n1)C2O)C(F)(F)F (racemic) [Example 6, N-(2-((3,4-Rac-trans)-3-((1H-pyrazol-3-yl)methyl)-4-hydroxychroman-7-yl)phenyl)-1,1,1-trifluoromethanesulfonamide]	240 nM
O=S(=O)(Nc1ccccc1-c1ccc2c(c1)OCC(Cc1cccnc1)C2O)C(F)(F)F (racemic) [Example 7, 1,1,1-Trifluoro-N-(2-((3,4-rac-trans)-4-hydroxy-3-(pyridin-3-ylmethyl)chroman-7-yl)phenyl)methanesulfonamide]	3510 nM
O=S(=O)(Nc1ccccc1-c1ccc2c(c1)OCC(Cc1ccsc1)C2O)C(F)(F)F (racemic) [Example 8, 1,1,1-Trifluoro-N-(2-((3,4-rac-trans)-4-hydroxy-3-(thiophen-3-ylmethyl)chroman-7-yl)phenyl)methanesulfonamide]	21 nM
O=S(=O)(Nc1ccccc1-c1ccc2c(c1)OC[C@@H](Cc1cncs1)[C@@H]2O)C(F)(F)F (racemic) [Example 9, 1,1,1-Trifluoro-N-(2-((3,4-rac-trans)-4-hydroxy-3-(thiazol-5-ylmethyl)chroman-7-yl)phenyl)methanesulfonamide]	269 nM
O=S(=O)(Nc1ccccc1-c1ccc2c(c1)OC[C@@H](Cc1cncs1)[C@H]2O)C(F)(F)F (racemic) [Example 10, 1,1,1-Trifluoro-N-(2-((3,4-rac-cis)-4-hydroxy-3-(thiazol-5-ylmethyl)chroman-7-yl)phenyl)methanesulfonamide]	4540 nM
Cc1ccc(CC2COc3cc(-c4ccccc4NS(=O)(=O)C(F)(F)F)ccc3C2O)nc1 (racemic) [Example 11, 1,1,1-Trifluoro-N-(2-((3,4-rac-trans)-4-hydroxy-3-((5-methylpyridin-2-yl)methyl)chroman-7-yl)phenyl)methanesulfonamide]	105 nM
O=S(=O)(Nc1ccccc1-c1ccc2c(c1)OCC(Cc1cn[nH]c1)C2O)C(F)(F)F (racemic) [Example 12, N-(2-((3,4-Rac-trans)-3-((1H-pyrazol-4-yl)methyl)-4-hydroxychroman-7-yl)phenyl)-1,1,1-trifluoromethanesulfonamide]	1650 nM
Cn1nccc1CC1COc2cc(-c3ccccc3NS(=O)(=O)C(F)(F)F)ccc2C1O (racemic) [Example 13, 1,1,1-Trifluoro-N-(2-((3,4-rac-trans)-4-hydroxy-3-((1-methyl-1H-pyrazol-5-yl)methyl)chroman-7-yl)phenyl)methanesulfonamide]	185 nM
O=S(=O)(Nc1ccccc1-c1ccc2c(c1)OC[C@H](Cc1cn(-c3ccccc3)nn1)[C@H]2O)C(F)(F)F (racemic) [Example 14, 1,1,1-Trifluoro-N-(2-{(rac-trans)-4-hydroxy-3-[(1-phenyl-1H-1,2,3-triazol-4-yl)methyl]-3,4-dihydro-2H-chromen-7-yl}phenyl)methanesulfonamide]	101 nM
O=S(=O)(Nc1ccccc1-c1ccc2c(c1)OC[C@H](Cc1ncco1)[C@H]2O)C(F)(F)F (racemic) [Example 15, 1,1,1-Trifluoro-N-{2-[(rac-trans)-4-hydroxy-3-(1,3-oxazol-2-ylmethyl)-3,4-dihydro-2H-chromen-7-yl]phenyl}methanesulfonamide]	994 nM

Further lines, results first:

EC50	SMILES
826 nM	Cc1nc(C[C@@H]2COc3cc(-c4ccccc4NS(=O)(=O)C(F)(F)F)ccc3[C@H]2O)cs1 (racemic) [Example 16, 1,1,1-Trifluoro-N-(2-{(rac-trans)-4-hydroxy-3-[(2-methyl-1,3-thiazol-4-yl)methyl]-3,4-dihydro-2H-chromen-7-yl}phenyl)methanesulfonamide]
1600 nM	O=S(=O)(Nc1ccccc1-c1ccc2c(c1)OC[C@H](Cc1ncccc1F)[C@H]2O)C(F)(F)F (racemic) [Example 19, 1,1,1-Trifluoro-N-(2-{(rac-trans)-3-[(3-fluoropyridin-2-yl)methyl]-4-hydroxy-3,4-dihydro-2H-chromen-7-yl}phenyl)methanesulfonamide]
215 nM	Cc1cccc(C[C@H]2COc3cc(-c4ccccc4NS(=O)(=O)C(F)(F)F)ccc3[C@@H]2O)n1 (racemic) [Example 20, 1,1,1-Trifluoro-N-(2-{(rac-trans)-4-hydroxy-3-[(6-methylpyridin-2-yl)methyl]-3,4-dihydro-2H-chromen-7-yl}phenyl)methanesulfonamide]
32 nM	Cc1nnc(C[C@H]2COc3cc(-c4ccccc4NS(=O)(=O)C(F)(F)F)ccc3[C@@H]2O)s1 (racemic) [Example 23, 1,1,1-Trifluoro-N-(2-{(rac-trans)-4-hydroxy-3-[(5-methyl-1,3,4-thiadiazol-2-yl)methyl]-3,4-dihydro-2H-chromen-7-yl}phenyl)methanesulfonamide]
329 nM	O=S(=O)(Nc1ccccc1-c1ccc2c(c1)OC[C@H](Cc1csc(-c3ccccc3)n1)[C@H]2O)C(F)(F)F (racemic) [Example 24, 1,1,1-Trifluoro-N-(2-((rac-trans)-4-hydroxy-3-((2-phenylthiazol-4-yl)methyl)chroman-7-yl)phenyl)methanesulfonamide]
209 nM	O=S(=O)(Nc1ccccc1-c1ccc2c(c1)OC[C@H](Cc1cnccn1)[C@H]2O)C(F)(F)F (racemic) [Example 27, 1,1,1-Trifluoro-N-{2-[(rac-trans)-4-hydroxy-3-(pyrazin-2-ylmethyl)-3,4-dihydro-2H-chromen-7-yl]phenyl}methanesulfonamide]
2140 nM	O=S(=O)(Nc1ccccc1-c1ccc2c(c1)OC[C@H](Cc1cccnn1)[C@H]2O)C(F)(F)F (racemic) [Example 28, 1,1,1-Trifluoro-N-{2-[(rac-trans)-4-hydroxy-3-(pyridazin-3-ylmethyl)-3,4-dihydro-2H-chromen-7-yl]phenyl}methanesulfonamide]
464 nM	O=S(=O)(Nc1ccccc1-c1ccc2c(c1)OC[C@H](Cc1ccc(F)cn1)[C@H]2O)C(F)(F)F (racemic) [Example 29, 1,1,1-Trifluoro-N-(2-((rac-trans)-3-((5-fluoropyridin-2-yl)methyl)-4-hydroxychroman-7-yl)phenyl)methanesulfonamide]
